The values below come from ChEMBL document CHEMBL4257529, “Antifungal amphiphilic kanamycins: new life for an old drug” (Medchemcomm, 2018).

For series [1], the system named is Escherichia coli. Nature of the series: Antibacterial activity against Escherichia coli TG1 by microbroth dilution assay. It counts as functional. A general note: Broth dilution looks for growth in wells or tubes with falling amounts of substance.
Series [2] has as its system Staphylococcus aureus. Put plainly: Antibacterial activity against Staphylococcus aureus ATCC 25923 by microbroth dilution assay. It is filed as functional.
Series [3] concerns Pseudomonas aeruginosa. Put plainly: Antibacterial activity against Pseudomonas aeruginosa ATCC 27853 by microbroth dilution assay. It counts as functional.
Series [4] concerns Enterococcus faecalis. Put plainly: Antibacterial activity against Enterococcus faecalis ATCC 29212 by microbroth dilution assay. It is filed as functional.
The subject of series [5] is Klebsiella pneumoniae. Put plainly: Antibacterial activity against Klebsiella pneumoniae […] by microbroth dilution assay. It is filed as functional.
For series [6], the system named is Klebsiella pneumoniae. Nature of the series: Antibacterial activity against Klebsiella pneumoniae ATCC 700603 by microbroth dilution assay. It is filed as functional.
The test system of series [7] is Rhodotorula mucilaginosa. Put plainly: Antifungal activity against Rhodotorula pilimanae by microbroth dilution assay. It is filed as functional.
In series [8] the test system is Candida albicans. Nature of the series: Antifungal activity against Candida albicans by microbroth dilution assay. It is filed as functional.
The subject of series [9] is Saccharomyces cerevisiae. Put plainly: Antifungal activity against Saccharomyces cerevisiae W303 by microbroth dilution assay. It is filed as functional.
Series [10] has as its system Fusarium graminearum. Put plainly: Antifungal activity against Fusarium graminearum by microbroth dilution assay. It is filed as functional.
The subject of series [11] is Fusarium oxysporum. Put plainly: Antifungal activity against Fusarium oxysporum by microbroth dilution assay. It is filed as functional.
Series [12] has as its system Ulocladium. Put plainly: Antifungal activity against Ulocladium spp. by microbroth dilution assay. It counts as functional. The following applies: Alternaria sect. Ulocladium.
The subject of series [13] is Globisporangium irregulare. Nature of the series: Antifungal activity against Pythium irregulare by microbroth dilution assay. It is filed as functional.
For series [14], the system named is Globisporangium ultimum. Put plainly: Antifungal activity against Pythium ultimum by microbroth dilution assay. It counts as functional.
The test system of series [15] is Phytophthora nicotianae. Nature of the series: Antifungal activity against Phytophthora parasitica by microbroth dilution assay. It is filed as functional.
Series [16] relates to Rhizopus stolonifer. Nature of the series: Antifungal activity against Rhizopus stolonifer by microbroth dilution assay. It is filed as functional.
The test system of series [17] is Cladosporium cladosporioides. Put plainly: Antifungal activity against Cladosporium cladosporioides by microbroth dilution assay. It counts as functional.
Series [18] deals with Curvularia brachyspora. Nature of the series: Antifungal activity against Curvularia brachyspora by microbroth dilution assay. It counts as functional.
Series [19] deals with Botrytis cinerea. Put plainly: Antifungal activity against Bortrytis cinerea by microbroth dilution assay. It counts as functional.
Series [20] relates to Phoma. Nature of the series: Antifungal activity against Phoma spp. by microbroth dilution assay. It counts as functional.
The nature of series [21]: Hemolytic activity in sheep RBC relative to control. The following applies: sheep red blood cells (erythrocytes), read-out: Activity. It is filed as ADME, cell-based, Ovis aries, Erythrocyte.
The test system of series [22] is Fusarium graminearum. Put plainly: Antifungal activity against Fusarium graminearum infected in wheat plant assessed as fusarium head blight incidence at 0.512 L/ha (reference value: 70%). It is filed as functional.
The subject of series [23] is Fusarium graminearum. Put plainly: Antifungal activity against Fusarium graminearum infected in wheat plant assessed as fusarium head blight incidence at 1.02 L/ha (reference value: 70%). It counts as functional.
The subject of series [24] is Fusarium graminearum. Put plainly: Antifungal activity against Fusarium graminearum infected in wheat plant assessed as fusarium head blight severity at 0.512 L/ha (reference value: 75%). It is filed as functional.
In series [25] the test system is Fusarium graminearum. Nature of the series: Antifungal activity against Fusarium graminearum infected in wheat plant assessed as fusarium head blight severity at 1.02 L/ha (reference value: 75%). It is filed as functional.
For series [26], the system named is Fusarium graminearum. Put plainly: Antifungal activity against Fusarium graminearum infected in wheat plant assessed as fusarium head blight index at 0.512 L/ha (reference value: 53%). It is filed as functional.
Series [27] has as its system Fusarium graminearum. Nature of the series: Antifungal activity against Fusarium graminearum infected in wheat plant assessed as fusarium head blight index at 1.02 L/ha (reference value: 53%). It counts as functional.
The subject of series [28] is Fusarium graminearum. Nature of the series: Antifungal activity against Fusarium graminearum infected in wheat plant assessed as contamination of wheat heads and kernels with deoxynivalenol at 4 ml/L (reference value: 1.2 ppm). It is filed as functional.
Series [29] concerns Fusarium graminearum. Nature of the series: Antifungal activity against Fusarium graminearum infected in wheat plant assessed as contamination of wheat heads and kernels with deoxynivalenol at 8 ml/L (reference value: 1.2 ppm). It counts as functional.

SMILES strings stand for the structures. ≈ marks a conversion by molar mass, not a printed value. Some results are limits rather than exact numbers.

Take `CCCCCCCCO[C@H]1[C@H](O)[C@@H](O)[C@@H](O[C@@H]2[C@@H](O)[C@H](O[C@H]3O[C@H](CN)[C@@H](O)[C@H](O)[C@H]3N)[C@@H](N)C[C@H]2N)O[C@@H]1C`: the MIC in series [1] is 125 to 250 µg/mL (≈ 215 to 431 µM); in [2] it was 250 µg/mL (≈ 431 µM); in series [3], 250 µg/mL (≈ 431 µM); in [4], 125 to 250 µg/mL (≈ 215 to 431 µM); in [5], 250 µg/mL (≈ 431 µM); in series [6] it was 250 µg/mL (≈ 431 µM). In addition, the MIC in [7] is 7.8 µg/mL (≈ 13.4 µM); in series [8], 31.3 µg/mL (≈ 53.9 µM); in series [9], 31.3 µg/mL (≈ 53.9 µM); in series [10], 7.8 µg/mL (≈ 13.4 µM); in series [11], 7.8 µg/mL (≈ 13.4 µM); in series [12] it was 7.8 µg/mL (≈ 13.4 µM). Also, the MIC in series [13] was determined as 15.6 µg/mL (≈ 26.9 µM); in series [14], 15.6 µg/mL (≈ 26.9 µM); in [15] it was 15.6 µg/mL (≈ 26.9 µM); in [16], 31.3 µg/mL (≈ 53.9 µM); in [17] it was 31.3 µg/mL (≈ 53.9 µM); in series [18], 31.3 µg/mL (≈ 53.9 µM). For the same compound, the MIC in [19] and in series [20] was 31.3 µg/mL (≈ 53.9 µM) throughout. The hemolysis in series [21] was under 20%.
`CC1(C)CCC(Cc2ccc(Cl)cc2)C1(O)Cn1cncn1` (centres undefined) [METCONAZOLE]: the Activity is listed as 13% in series [22], 12% in series [23], 69% in [24] and 58% in series [25]. In addition, the Activity_index in series [26] stood at 9%; in series [27], 7%.
For `COC(=O)N(OC)c1ccccc1COc1ccn(-c2ccc(Cl)cc2)n1` [PYRACLOSTROBIN], the Activity in series [28] is listed as 1.3 ppm; in [29] it was 1.2 ppm.

The MIC is the lowest concentration found to suppress growth. The low end stands for inhibition by little substance, the high end for a need for much substance.
